Measured values taken from US20250171461A1, “STIMULATOR OF INTERFERON GENES (STING) MODULATORS, AND COMPOSITIONS AND METHODS THEREOF” (Geode Therapeutics Inc., priority 2022, published 2025).

Tests used:
[1] = target: T1, human HAQ STING isoform (hSTING HAQ) (Homo sapiens, UniProt Q86WV6, G230A/H232R/R293Q/R71H); assay: IFN-β mRNA level in THP1 cells (qPCR, STING agonist cellular activity); type: cell-based; settings: compound at 3.6 μM, 2 hrs, IFNβ expression normalized against GAPDH by the 2^-ΔΔCT method, DMSO = 1.0
T1 construct: THP1 cells express the naturally occurring human HAQ STING isoform (hSTING HAQ); host or cells: THP1
Outline: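 THP1 cells were seeded at 9×10^5 per well, incubated overnight, then treated with compound at 3.6 μM final (0.1% DMSO control) for 2 hrs at 37 °C. IFN-β mRNA was measured by SYBR Green qPCR, normalised to GAPDH by the 2^−ΔΔCT method, in triplicate.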

hERG channel = target: T2, hERG channel (Homo sapiens, UniProt Q12809); assay: hERG safety evaluation, manual whole cell patch clamp in hERG-expressing HEK 293 cells; type: cell-based; settings: hERG stably expressed HEK 293 cells, tail current, whole cell recording
T2 construct: host or cells: HEK 293
Description: (1) hERG stably expressed HEK 293 cell line (#60187) was purchased from BPS Bioscience and P3-P20 were used for the study. Cells were cultured in medium containing: 90% MEM, 10% FBS, 0.1 mM NEAA, 100 U/mL Penicillin-Streptomycin, 1 mM Na pyruvate and 500 μg/mL Geneticin. Cells are split about three times a week, and maintained between ˜40% to ˜80% confluence. 24 to 48 hours prior to recordings, the cells were plated on 0.05 mg/mL PDL pre-coated glass cover slips placed in 48-well plate at 1×10^4 cells. (2) The number of cells being plated on the cover slip should reach a confluence rate at which majority of the cells are single. (1) Test compounds were initially prepared in DMSO with final concentration of 10 mM as stock solution. (2) Compound was first made into 10, 3, 1, 0.3 and 0.1 mM DMSO stock, then serial diluted into the desired test concentrations in the extracellular solution (ECs). 30 uM test solution was diluted from 10 mM DMSO stock. The final DMSO concentration was in range of 0.1-0.3%. HEKA EPC 10 USB patch clamp amplifier (from HEKA Elektronik, Germany) was used in the whole cell recording. A cover slip with plenty of single HEK293 hERG cells on the surface was removed and placed into a continuously perfused (approximately 1 ml/minute) recording chamber mounted on an inverted microscope. HERG channel currents were recorded from single cells using standard whole cell recording techniques. The cells were voltage clamped at a holding potential of −80 mV. Then hERG current was activated by depolarizing at +30 mV for 5000 ms, after which the current was taken back to −50 mV for 5000 ms to remove the inactivation and observe the deactivating tail current. The K+ tail current through HERG channels observed during this step was allowed to stabilize under continuous bath perfusion. Cells were then superfused with drug until steady state block was achieved. Steady state was considered reached when three consecutive super-imposable current records were collected. At this point, cells were once again superfused with extracellular solution until the current amplitude returned to values close to those measured before application of drug. (1) Percent current inhibition was calculated using the following equation. (Note: PatchMaster was used to extract the peak current from the original data.) (2) The dose response curve of test compounds was plotted with % inhibition against the concentration of test compounds using Graphpad Prism 9.0, and fit the data to a log(inhibitor) vs. response—Variable slope curve.

T2 sequence (Q12809 whole entry): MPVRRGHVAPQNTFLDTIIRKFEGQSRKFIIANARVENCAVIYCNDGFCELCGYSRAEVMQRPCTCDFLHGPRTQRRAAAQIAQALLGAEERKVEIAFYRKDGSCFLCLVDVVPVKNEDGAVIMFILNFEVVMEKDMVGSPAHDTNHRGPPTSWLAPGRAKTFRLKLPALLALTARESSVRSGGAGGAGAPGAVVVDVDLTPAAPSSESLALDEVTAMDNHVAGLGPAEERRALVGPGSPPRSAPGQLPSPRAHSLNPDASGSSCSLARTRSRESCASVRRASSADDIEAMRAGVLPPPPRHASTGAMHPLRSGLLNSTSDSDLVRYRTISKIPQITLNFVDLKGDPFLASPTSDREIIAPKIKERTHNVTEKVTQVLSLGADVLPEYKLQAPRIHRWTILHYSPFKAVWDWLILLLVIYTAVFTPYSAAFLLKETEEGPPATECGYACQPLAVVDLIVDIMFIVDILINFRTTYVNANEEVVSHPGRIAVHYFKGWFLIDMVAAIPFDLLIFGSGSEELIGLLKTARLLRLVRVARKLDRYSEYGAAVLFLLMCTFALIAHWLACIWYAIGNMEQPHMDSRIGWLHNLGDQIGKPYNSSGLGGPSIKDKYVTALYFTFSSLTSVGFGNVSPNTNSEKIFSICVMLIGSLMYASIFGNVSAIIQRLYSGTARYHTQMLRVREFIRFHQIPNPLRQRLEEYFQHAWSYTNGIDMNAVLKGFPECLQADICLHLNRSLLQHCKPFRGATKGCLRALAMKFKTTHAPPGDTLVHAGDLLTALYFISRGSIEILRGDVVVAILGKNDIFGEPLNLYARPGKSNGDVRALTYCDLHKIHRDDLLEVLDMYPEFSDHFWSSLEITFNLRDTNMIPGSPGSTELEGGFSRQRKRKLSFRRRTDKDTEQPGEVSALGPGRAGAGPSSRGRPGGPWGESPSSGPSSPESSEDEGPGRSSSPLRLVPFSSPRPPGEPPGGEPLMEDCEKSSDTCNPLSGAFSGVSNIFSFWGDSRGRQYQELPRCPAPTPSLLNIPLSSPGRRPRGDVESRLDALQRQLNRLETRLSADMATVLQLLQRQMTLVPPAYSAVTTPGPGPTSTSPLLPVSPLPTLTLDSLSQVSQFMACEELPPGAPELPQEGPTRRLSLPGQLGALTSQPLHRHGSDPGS
T1 sequence (Q86WV6 whole entry R71H/G230A/H232R/R293Q, canonical isoform): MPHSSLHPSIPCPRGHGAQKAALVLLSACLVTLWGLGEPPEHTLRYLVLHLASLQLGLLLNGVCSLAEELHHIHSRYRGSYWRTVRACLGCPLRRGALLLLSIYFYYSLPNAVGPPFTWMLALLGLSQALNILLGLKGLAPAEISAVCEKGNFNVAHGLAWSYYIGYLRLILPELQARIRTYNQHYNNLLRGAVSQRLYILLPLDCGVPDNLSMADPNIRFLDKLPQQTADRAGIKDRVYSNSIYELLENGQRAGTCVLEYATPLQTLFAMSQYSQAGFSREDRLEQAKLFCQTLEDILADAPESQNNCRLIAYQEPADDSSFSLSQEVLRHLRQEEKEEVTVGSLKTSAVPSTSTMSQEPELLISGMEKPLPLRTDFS

SMILES	Relative mRNA INFβ/GAPDH THP 1 [1]	IC50 (hERG channel)
COc1cc(CN(Cc2cn3c4c(c(F)c(F)cc4c2=O)OCC3C)[C@H]2CCCN(c3ccc(N)nc3)C2)ccn1 (stereo partly drawn) [Compound 1, 6-((((S)-1-(6-aminopyridin-3-yl)piperidin-3-yl)((2-methoxypyridin-4-yl)methyl)amino)methyl)-9,10-difluoro-3-methyl-2H-[1,4]oxazino[2,3,4-ij]quinolin-7(3H)-one]	447.9	1580 nM
COc1cc(CN(Cc2cn3c4c(c(N5CCN(C)CC5)c(F)cc4c2=O)OCC3C)[C@H]2CCCN(c3ccc(N)nc3)C2)ccn1 (stereo partly drawn) [Compound 29, 6-((((S)-1-(6-aminopyridin-3-yl)piperidin-3-yl)((2-methoxypyridin-4-yl)methyl)amino)methyl)-9-fluoro-3-methyl-10-(4-methylpiperazin-1-yl)-2H-[1,4]oxazino[2,3,4-ij]quinolin-7(3H)-one]	3330.1	34100 nM
COc1cc(CN(Cc2cn3c4c(c(F)c(F)cc4c2=O)OCC3C(C)C)[C@H]2CCCN(c3ccc(N)nc3)C2)ccn1 (stereo partly drawn) [Compound 53, 6-((((S)-1-(6-aminopyridin-3-yl)piperidin-3-yl)((2-methoxypyridin-4-yl)methyl)amino)methyl)-9,10-difluoro-3-isopropyl-2H-[1,4]oxazino[2,3,4-ij]quinolin-7(3H)-one]	433.0	1270 nM
COc1cc(CN(Cc2cn3c4c(c(F)c(F)cc4c2=O)OCC3)[C@H]2CCCN(c3ccc(N)nc3)C2)ccn1 [Compound 66, (S)-6-(((1-(6-aminopyridin-3-yl)piperidin-3-yl)((2-methoxypyridin-4-yl)methyl)amino)methyl)-9,10-difluoro-2,3-dihydro-7H-[1,4]oxazino[2,3,4-ij]quinolin-7-one]	7328.8	2720 nM
COc1cc(CN(Cc2cn3c4c(c(F)c(F)cc4c2=O)CCC3)[C@H]2CCCN(c3ccc(N)nc3)C2)ccn1 [Compound 67, (S)-2-(((1-(6-aminopyridin-3-yl)piperidin-3-yl)((2-methoxypyridin-4-yl)methyl)amino)methyl)-8,9-difluoro-6,7-dihydro-1H,5H-pyrido[3,2,1-ij]quinolin-1-one]	7398.9	3080 nM
COc1cc(CN(Cc2cn3c4c(c(F)c(F)cc4c2=O)SCC3)[C@H]2CCCN(c3ccc(N)nc3)C2)ccn1 [Compound 69, 9,10-difluoro-6-({[(3S)-1-(6-aminopyridin-3-yl)hexahydropyridin-3-yl][(2-methoxypyridin-4-yl)methyl]amino}methyl)-3,7-dihydro-2H-[1,4]thiazino[2,3,4-ij]quinolin-7-one]	9547.9	1940 nM
COCC1COc2c(F)c(F)cc3c(=O)c(CN(Cc4ccnc(OC)c4)[C@H]4CCCN(c5ccc(N)nc5)C4)cn1c23 (stereo partly drawn) [Compound 82, 6-((((S)-1-(6-aminopyridin-3-yl)piperidin-3-yl)((2-methoxypyridin-4-yl)methyl)amino)methyl)-9,10-difluoro-3-(methoxymethyl)-2,3-dihydro-7H-[1,4]oxazino[2,3,4-ij]quinolin-7-one]	349.0	3140 nM
COc1cc(CN(Cc2cn3c4c(c(F)c(F)cc4c2=O)SCC3)[C@H]2CCCN(c3ccc(NCC4CC4)nc3)C2)ccn1 [Compound 98, (S)-6-(((1-(6-((cyclopropylmethyl)amino)pyridin-3-yl)piperidin-3-yl)((2-methoxypyridin-4-yl)methyl)amino)methyl)-9,10-difluoro-2,3-dihydro-7H-[1,4]thiazino[2,3,4-ij]quinolin-7-one]	301.6	–
COc1cc(CN(Cc2cn3c4c(c(F)c(F)cc4c2=O)OCC3)[C@H]2CCCN(c3ccc(NCC4CC4)nc3)C2)ccn1 [Compound 99, (S)-6-(((1-(6-((cyclopropylmethyl)amino)pyridin-3-yl)piperidin-3-yl)((2-methoxypyridin-4-yl)methyl)amino)methyl)-9,10-difluoro-2,3-dihydro-7H-[1,4]oxazino[2,3,4-ij]quinolin-7-one]	368.7	–
CCC1COc2c(F)c(F)cc3c(=O)c(CN(Cc4ccnc(OC)c4)[C@H]4CCCN(c5ccc(N)nc5)C4)cn1c23 (stereo partly drawn) [Compound 100, 6-((((S)-1-(6-aminopyridin-3-yl)piperidin-3-yl)((2-methoxypyridin-4-yl)methyl)amino)methyl)-3-ethyl-9,10-difluoro-2,3-dihydro-7H-[1,4]oxazino[2,3,4-ij]quinolin-7-one]	581.3	–
Cc1ccc(N2CCC[C@H](N(Cc3ccnc(C)c3)Cc3cn4c5c(c(OCCO)c(F)cc5c3=O)OCC4C)C2)cn1 (stereo partly drawn) [Compound 101, 9-fluoro-10-(2-hydroxyethoxy)-3-methyl-6-((((S)-1-(6-methylpyridin-3-yl)piperidin-3-yl)((2-methylpyridin-4-yl)methyl)amino)methyl)-2,3-dihydro-7H-[1,4]oxazino[2,3,4-ij]quinolin-7-one]	332.9	–
Cc1ccc(N2CCC[C@H](N(Cc3ccnc(C)c3)Cc3cn4c5c(c(O)c(F)cc5c3=O)OCC4C)C2)cn1 (stereo partly drawn) [Compound 102, 9-fluoro-10-hydroxy-3-methyl-6-((((S)-1-(6-methylpyridin-3-yl)piperidin-3-yl)((2-methylpyridin-4-yl)methyl)amino)methyl)-2,3-dihydro-7H-[1,4]oxazino[2,3,4-ij]quinolin-7-one]	0.9	–
COc1cc(CN(Cc2cn3c4c(c(OC)c(F)cc4c2=O)OCC3C)[C@H]2CCCN(c3ccc(N)nc3)C2)ccn1 (stereo partly drawn) [Compound 103, 6-((((S)-1-(6-aminopyridin-3-yl)piperidin-3-yl)((2-methoxypyridin-4-yl)methyl)amino)methyl)-9-fluoro-10-methoxy-3-methyl-2,3-dihydro-7H-[1,4]oxazino[2,3,4-ij]quinolin-7-one]	356.0	–
